According to patent US10383950B2, “Methods and compositions of carrier systems for the purpose of intracellular drug targeting” (HELMHOLTZ-ZENTRUM FÜR INFEKTIONSFORSCHUNG GMBH, priority 2014, dated 2019):

Assays:
[1] = cited from earlier work
[2] = In vitro release of gentamicin (dialysis membrane setup); details: 37° C., PBS pH 7.4, 10.000 MWCO cellulose membrane

## gentamicin
[1]
  pKa: 8.2
[2]
  time at which gentamicin became detectable in the bulk release medium: ≤ 1 min
  time to complete release / permeation of gentamicin: 1.5 h
